The record followed here is patent US20240409585A1, “MACROCYCLIC IMMUNOMODULATORS” (priority 2021, published 2024).

One may read the IC50 as the concentration needed to halve the response being measured.

The structures appear in SMILES notation. Numbered stars: 1 amine (or outer) side, 2 acyl side, 3 side chain; on linkers, the order of the positions; unused ones are H or OH. Bridge positions count the residues as written; N and C are the ends. Square brackets hold non-standard residues; d marks the D form. Peptide text beside a SMILES is read from it. * marks the point of attachment. ξ: configuration not given here. Phe(3,4-F2) = N[C@@H](Cc1ccc(F)c(F)c1)C(=O)O; X28 = O=C([C@H](Cc1ccc2ccncc2c1)N[*:1])[*:2]; Bip = N[C@@H](Cc1ccc(-c2ccccc2)cc1)C(=O)O; Phe(3-CN) = N#Cc1cccc(C[C@H](N)C(=O)O)c1; Phe(3-F) = N[C@@H](Cc1cccc(F)c1)C(=O)O; Phe(3-Me) = Cc1cccc(C[C@H](N)C(=O)O)c1; Dopa = N[C@@H](Cc1ccc(O)c(O)c1)C(=O)O; Val(3-OH) = CC(C)(O)[C@H](N)C(=O)O; 4Pal = N[C@@H](Cc1ccncc1)C(=O)O; Cha = N[C@@H](CC1CCCCC1)C(=O)O; Ile(3ξ) = CCC(C)[C@H](N)C(=O)O; Thr(3ξ) = CC(O)[C@H](N)C(=O)O; Carboxymethyl = O=C(O)C*; NMeA = CN[C@@H](C)C(=O)O; Orn = NCCC[C@H](N)C(=O)O; Pra = C#CC[C@H](N)C(=O)O; Dab = NCC[C@H](N)C(=O)O; Dap = NC[C@H](N)C(=O)O; ξC = NC(CS)C(=O)O

In the experiment the target is T1, PE-labeled human PD-L1-Ig binding to Jurkat cell line over-expressing human PD-1 (Jurkat-PD-1) (Homo sapiens, UniProt Q15116).
T1 construct: expressed in transfected cells; host or cells: Jurkat
T1 sequence (Q15116 25-288): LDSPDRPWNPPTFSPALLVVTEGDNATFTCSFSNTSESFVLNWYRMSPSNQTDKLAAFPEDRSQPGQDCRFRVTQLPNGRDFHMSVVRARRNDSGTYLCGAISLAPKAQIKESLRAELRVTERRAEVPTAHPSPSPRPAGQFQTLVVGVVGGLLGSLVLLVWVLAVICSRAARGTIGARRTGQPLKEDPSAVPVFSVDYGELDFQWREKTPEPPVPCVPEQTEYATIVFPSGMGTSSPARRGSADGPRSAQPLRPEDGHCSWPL
As to the kind of experiment: Jurkat-PD-1 Cell Binding High-Content Screening Assay (CBA): Method 1. To be noted: Jurkat-hPD-1 cells, PE-labeled PD-L1-Ig 20 nM final; read-out: Jurkat HPDL1 PD1 IC50 (uM) (Method 1).
On to `CC[C@H](C)[C@@H]1NC(=O)[C@H](Cc2ccc(-c3ccccc3)cc2)NC(=O)[C@H](C(C)C)NC(=O)[C@H](Cc2c[nH]c3ccccc23)NC(=O)[C@H](CC(=O)O)NC(=O)[C@H](Cc2ccc(O)cc2)NC(=O)[C@H](Cc2ccccc2)NC(=O)CSC[C@@H](C(=O)N[C@@H](C)C(N)=O)NC(=O)[C@H]([C@@H](C)O)NC(=O)[C@H](C(C)C)NC(=O)[C@H](CC(C)C)NC(=O)[C@H](CCN)NC(=O)[C@@H](CC(C)C)NC(=O)[C@H](C)N(C)C1=O` [Compound 1393] ({CH2CO}-FYDWV[Bip]I[NMeA][dL][Dab]LVTCA-NH2; thioether N-14), for which the IC50 came to 0.03 µM.
As to `C#CC[C@H](NC(=O)CNC(=O)[C@@H]1CSCC(=O)N[C@@H]([C@@H](C)O)C(=O)N[C@@H](Cc2ccc(OCC(=O)O)cc2)C(=O)N[C@@H](CC(=O)O)C(=O)N[C@@H](Cc2cccc(C)c2)C(=O)N[C@@H](Cc2ccc(OCC(=O)O)cc2)C(=O)N[C@@H](Cc2ccc(-c3ccccc3)cc2)C(=O)N[C@@H](Cc2ccc(OCC(=O)O)cc2)C(=O)N(C)[C@@H](C)C(=O)N[C@H](CC(C)C)C(=O)N[C@@H](CCN)C(=O)N[C@@H](CC2CCCCC2)C(=O)N[C@@H](C(C)(C)O)C(=O)N[C@@H](CCC(=O)O)C(=O)N1)C(=O)O` [Compound 1938] ({CH2CO}-TY(Carboxymethyl)D[Phe(3-Me)]Y(Carboxymethyl)[Bip]Y(Carboxymethyl)[NMeA][dL][Dab][Cha][Val(3-OH)]ECG[Pra]-OH; thioether N-14), the IC50 is 0.34 µM.
For `CC(C)C[C@@H]1NC(=O)[C@H](CCN)NC(=O)[C@@H](CC(C)C)NC(=O)[C@H](C)N(C)C(=O)[C@H](CCC(=O)O)NC(=O)[C@H](Cc2ccc(-c3ccccc3)cc2)NC(=O)[C@H](C(C)C)NC(=O)[C@H](Cc2c[nH]c3ccccc23)NC(=O)[C@H](CC(=O)O)NC(=O)[C@H](Cc2ccc(OCC(=O)O)cc2)NC(=O)[C@H](Cc2ccc(OCC(=O)O)cc2)NC(=O)CSC[C@@H](C(=O)N[C@@H](C)C(N)=O)NC(=O)[C@H](CO)NC(=O)[C@H](C(C)C)NC1=O` [Compound 1577] ({CH2CO}-Y(Carboxymethyl)Y(Carboxymethyl)DWV[Bip]E[NMeA][dL][Dab]LVSCA-NH2; thioether N-14) the value was 0.03 µM; for `CC[C@H](C)[C@@H]1NC(=O)[C@H](Cc2ccc(-c3ccccc3)cc2)NC(=O)[C@H](C(C)C)NC(=O)[C@H](Cc2c[nH]c3ccccc23)NC(=O)[C@H](CC(=O)O)NC(=O)[C@H](Cc2ccc(O)cc2)NC(=O)[C@H](CC(N)=O)NC(=O)CSC[C@@H](C(=O)N[C@@H](C)C(N)=O)NC(=O)[C@H]([C@@H](C)O)NC(=O)[C@H](C(C)C)NC(=O)[C@H](CC2CCCCC2)NC(=O)[C@H](CCCNC(=N)N)NC(=O)[C@@H](CC(C)C)NC(=O)[C@H](C)N(C)C1=O` [Compound 1495] ({CH2CO}-NYDWV[Bip]I[NMeA][dL]R[Cha]VTCA-NH2; thioether N-14), 0.04 µM; for `CCNC(=O)[C@H](CCN)NC(=O)[C@@H]1CSCC(=O)N[C@@H](Cc2ccncc2)C(=O)N[C@@H](Cc2cccc(C#N)c2)C(=O)N[C@@H](CC(=O)O)C(=O)N[C@@H](Cc2cccc(C)c2)C(=O)N[C@@H](Cc2cccc(F)c2)C(=O)N[C@@H](Cc2ccc(-c3ccccc3)cc2)C(=O)N[C@@H](Cc2ccc(OCC(=O)O)cc2)C(=O)N(C)[C@@H](C)C(=O)N[C@H](CC(C)C)C(=O)N[C@@H](CCN)C(=O)N[C@@H](CC2CCCCC2)C(=O)N[C@@H](C(C)(C)O)C(=O)N[C@@H](CO)C(=O)N1` [Compound 1843] ({CH2CO}-[4Pal][Phe(3-CN)]D[Phe(3-Me)][Phe(3-F)][Bip]Y(Carboxymethyl)[NMeA][dL][Dab][Cha][Val(3-OH)]SC[Dab]-NHEt; thioether N-14), 0.01 µM.
Regarding `CC(C)C[C@@H]1NC(=O)[C@H](Cc2c[nH]c3ccccc23)NC(=O)[C@H](CC(=O)O)NC(=O)[C@H](Cc2ccc(O)c(O)c2)NC(=O)[C@H](Cc2ccccc2)NC(=O)CSC[C@@H](C(=O)N[C@@H](C)C(N)=O)NC(=O)[C@H](CO)NC(=O)[C@H](C(C)C)NC(=O)[C@H](CC(C)C)NC(=O)[C@H](CC(N)=O)NC(=O)[C@@H](C)NC(=O)[C@H](C)N(C)C(=O)[C@H](C(C)C)NC(=O)[C@H](Cc2ccc(-c3ccccc3)cc2)NC1=O` [Compound 1724] ({CH2CO}-F[Dopa]DWL[Bip]V[NMeA][dA]NLVSCA-NH2; thioether N-14), the IC50 was determined as 0.01 µM.
The figure for `CCC(C)[C@@H]1NC(=O)[C@H](Cc2ccc(-c3ccccc3)cc2)NC(=O)[C@H](C(C)C)NC(=O)[C@H](Cc2c[nH]c3ccccc23)NC(=O)[C@H](CC(=O)O)NC(=O)[C@H](Cc2ccc(O)cc2)NC(=O)[C@H](Cc2ccc3ccncc3c2)NC(=O)CSCC(C(=O)NCC(=O)O)NC(=O)[C@H](C(C)O)NC(=O)[C@H](C(C)C)NC(=O)[C@H](CC2CCCCC2)NC(=O)[C@H](CCN)NC(=O)[C@@H](CC(C)C)NC(=O)[C@H](C)N(C)C1=O` (stereo partly drawn) [Compound 2219] ({CH2CO}-[X28]YDWV[Bip][Ile(3ξ)][NMeA][dL][Dab][Cha]V[Thr(3ξ)][ξC]G-OH; thioether N-14) is 0.02 µM; for `CC(C)C[C@H]1NC(=O)[C@H](C)N(C)C(=O)[C@H](C(C)C)NC(=O)[C@H](Cc2ccc(-c3ccccc3)cc2)NC(=O)[C@H](C(C)C)NC(=O)[C@H](Cc2c[nH]c3ccccc23)NC(=O)[C@H](CC(=O)O)NC(=O)[C@H](Cc2ccc(O)cc2)NC(=O)[C@H](Cc2ccccc2)NC(=O)CSC[C@@H](C(=O)N[C@@H](C)C(N)=O)NC(=O)[C@H]([C@@H](C)O)NC(=O)[C@H](C(C)C)NC(=O)[C@H](CC2CCCCC2)NC(=O)[C@H](CCCNC(=N)N)NC1=O` [Compound 1487] ({CH2CO}-FYDWV[Bip]V[NMeA][dL]R[Cha]VTCA-NH2; thioether N-14) it is 0.32 µM; for `Cc1cccc(C[C@@H]2NC(=O)[C@H](CC(=O)O)NC(=O)[C@H](Cc3ccncc3)NC(=O)[C@H](CN)NC(=O)CSC[C@@H](C(=O)N[C@@H](C)C(N)=O)NC(=O)[C@H]([C@@H](C)O)NC(=O)[C@H](C(C)C)NC(=O)[C@H](CC(C)C)NC(=O)[C@H](CCN)NC(=O)[C@@H](CC(C)C)NC(=O)[C@H](C)N(C)C(=O)[C@H](C(C)C)NC(=O)[C@H](Cc3ccc(-c4ccccc4)cc3)NC(=O)[C@H](C(C)C)NC2=O)c1` [Compound 1543] ({CH2CO}-[Dap][4Pal]D[Phe(3-Me)]V[Bip]V[NMeA][dL][Dab]LVTCA-NH2; thioether N-14) it is 0.01 µM.
The figure for `CC(C)C[C@@H]1NC(=O)[C@H](CCCNC(=N)N)NC(=O)[C@H](Cc2ccc(F)c(F)c2)NC(=O)[C@H](C)N(C)C(=O)[C@H](CCCNC(=N)N)NC(=O)[C@H](Cc2ccc(-c3ccccc3)cc2)NC(=O)[C@H](C(C)C)NC(=O)[C@H](Cc2c[nH]c3ccccc23)NC(=O)[C@H](CC(=O)O)NC(=O)[C@H](Cc2ccc(O)cc2)NC(=O)[C@H](Cc2ccccc2)NC(=O)CSC[C@@H](C(=O)NCC(N)=O)NC(=O)[C@H](CO)NC(=O)[C@H](C(C)C)NC1=O` [Compound 1015] ({CH2CO}-FYDWV[Bip]R[NMeA][Phe(3,4-F2)]RLVSCG-NH2; thioether N-14) is 0.16 µM; for `CC(=O)NCCCC[C@@H]1NC(=O)[C@H](C(C)C)NC(=O)[C@H](CC2CCCCC2)NC(=O)[C@H](CCN)NC(=O)[C@@H](CC(C)C)NC(=O)[C@H](C)N(C)C(=O)[C@H](Cc2cnc[nH]2)NC(=O)[C@H](Cc2ccc(-c3ccccc3)cc2)NC(=O)[C@H](C(C)C)NC(=O)[C@H](Cc2cccc(C)c2)NC(=O)[C@H](CC(=O)O)NC(=O)[C@H](Cc2ccc(OCC(=O)O)cc2)NC(=O)[C@H](Cc2ccc(OCC(=O)O)cc2)NC(=O)CSC[C@@H](C(N)=O)NC1=O` [Compound 2262] ({CH2CO}-Y(Carboxymethyl)Y(Carboxymethyl)D[Phe(3-Me)]V[Bip]H[NMeA][dL][Dab][Cha]VK(Ac)C-NH2; thioether N-14) it is 0.01 µM.
For `CC(C)C[C@@H]1NC(=O)[C@H](Cc2c[nH]c3ccccc23)NC(=O)[C@H](CC(=O)O)NC(=O)[C@H](Cc2ccncc2)NC(=O)[C@H](Cc2ccc(OCC(=O)O)cc2)NC(=O)CSC[C@@H](C(=O)N[C@@H](C)C(N)=O)NC(=O)[C@H](CO)NC(=O)[C@H](C(C)C)NC(=O)[C@H](CC(C)C)NC(=O)[C@H](CC(N)=O)NC(=O)[C@@H](CC(C)C)NC(=O)[C@H](C)N(C)C(=O)[C@H](C(C)C)NC(=O)[C@H](Cc2ccc(-c3ccccc3)cc2)NC1=O` [Compound 1591] ({CH2CO}-Y(Carboxymethyl)[4Pal]DWL[Bip]V[NMeA][dL]NLVSCA-NH2; thioether N-14) the value was 0.03 µM; for `CC(C)C[C@@H]1NC(=O)[C@H](CCN)NC(=O)[C@@H](CC(C)C)NC(=O)[C@H](C)N(C)C(=O)[C@H](CCCNC(=N)N)NC(=O)[C@H](Cc2ccc(-c3ccccc3)cc2)NC(=O)[C@H](C(C)C)NC(=O)[C@H](Cc2c[nH]c3ccccc23)NC(=O)[C@H](CC(=O)O)NC(=O)[C@H](Cc2ccc(O)cc2)NC(=O)[C@H](Cc2cnc[nH]2)NC(=O)CSC[C@@H](C(=O)N[C@@H](C)C(N)=O)NC(=O)[C@H]([C@@H](C)O)NC(=O)[C@H](C(C)C)NC1=O` [Compound 1051] ({CH2CO}-HYDWV[Bip]R[NMeA][dL][Dab]LVTCA-NH2; thioether N-14), 0.15 µM.
Consider `CC(C)C[C@@H]1NC(=O)[C@H](CCN)NC(=O)[C@@H](CC(C)C)NC(=O)[C@H](C)N(C)C(=O)[C@H](CCCN)NC(=O)[C@H](Cc2ccc(-c3ccccc3)cc2)NC(=O)[C@H](C(C)C)NC(=O)[C@H](Cc2c[nH]c3ccccc23)NC(=O)[C@H](CC(=O)O)NC(=O)[C@H](Cc2ccc(O)cc2)NC(=O)[C@H](CN)NC(=O)CSC[C@@H](C(=O)N[C@@H](C)C(N)=O)NC(=O)[C@H](C(C)O)NC(=O)[C@H](C(C)C)NC1=O` (stereo partly drawn) [Compound 2080] ({CH2CO}-[Dap]YDWV[Bip][Orn][NMeA][dL][Dab]LV[Thr(3ξ)]CA-NH2; thioether N-14), for which the IC50 was 0.15 µM.
